Experimental data taken from the kinase profiling compilation of Christmann-Franck et al. (2016).

Target: MAP3K9 (human) (UniProt P80192)
Assay: radiometric filter-binding kinase assay, Kinase HotSpot
Settings: compound 0.5 µM; ATP 10 µM

Row | Structure (SMILES) | residual activity [%]
1 | COc1cc2c(cc1OC)-c1[nH]nc(Nc3cccc(F)c3)c1C2 | 90
2 | O=c1c(-c2ccc(F)cc2)c(-c2ccncc2)[nH]n1-c1ccc(Cl)cc1 | 103
3 | Cn1cc(/C=C2\C(=O)Nc3ccc(S(N)(=O)=O)cc32)c2ccccc21 | 28.1
4 | COc1cccc(-c2cc(=O)c3ccccc3o2)c1N | 93.2

Target: MAP4K2 (human) (UniProt Q12851)
Assay: as above
Settings: compound 0.5 µM; ATP 10 µM

Row | Structure (SMILES) | residual activity [%]
5 | COc1cc2c(cc1OC)-c1[nH]nc(Nc3cccc(F)c3)c1C2 | 103
6 | O=c1c(-c2ccc(F)cc2)c(-c2ccncc2)[nH]n1-c1ccc(Cl)cc1 | 87.7
7 | Cn1cc(/C=C2\C(=O)Nc3ccc(S(N)(=O)=O)cc32)c2ccccc21 | 17.4
8 | COc1cccc(-c2cc(=O)c3ccccc3o2)c1N | 81.7

Target: MAPK1 (human) (UniProt P28482)
Assay: as above
Settings: compound 0.5 µM; ATP 10 µM

Row | Structure (SMILES) | residual activity [%]
9 | COc1cc2c(cc1OC)-c1[nH]nc(Nc3cccc(F)c3)c1C2 | 85.1
10 | O=c1c(-c2ccc(F)cc2)c(-c2ccncc2)[nH]n1-c1ccc(Cl)cc1 | 77.3
11 | Cn1cc(/C=C2\C(=O)Nc3ccc(S(N)(=O)=O)cc32)c2ccccc21 | 98.2
12 | COc1cccc(-c2cc(=O)c3ccccc3o2)c1N | 97.1

Target: MAPK10 (human) (UniProt P53779)
Assay: as above
Settings: compound 0.5 µM; ATP 10 µM

Sequence of MAPK10 (human) (P53779 whole entry, looked up): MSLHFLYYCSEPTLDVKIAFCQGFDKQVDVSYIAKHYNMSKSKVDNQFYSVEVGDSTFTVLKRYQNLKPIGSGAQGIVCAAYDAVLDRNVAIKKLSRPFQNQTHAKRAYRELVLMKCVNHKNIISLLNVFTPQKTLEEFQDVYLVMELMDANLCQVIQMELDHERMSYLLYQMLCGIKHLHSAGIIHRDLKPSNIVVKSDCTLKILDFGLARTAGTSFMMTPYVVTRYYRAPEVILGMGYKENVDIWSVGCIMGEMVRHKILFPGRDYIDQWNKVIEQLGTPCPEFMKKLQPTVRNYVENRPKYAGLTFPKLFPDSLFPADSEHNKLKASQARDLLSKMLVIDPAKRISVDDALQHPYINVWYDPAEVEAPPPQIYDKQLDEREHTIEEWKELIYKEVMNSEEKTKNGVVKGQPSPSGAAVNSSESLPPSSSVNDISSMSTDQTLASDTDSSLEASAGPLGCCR

Row | Structure (SMILES) | residual activity [%]
13 | COc1cc2c(cc1OC)-c1[nH]nc(Nc3cccc(F)c3)c1C2 | 102
14 | O=c1c(-c2ccc(F)cc2)c(-c2ccncc2)[nH]n1-c1ccc(Cl)cc1 | 97.1
15 | Cn1cc(/C=C2\C(=O)Nc3ccc(S(N)(=O)=O)cc32)c2ccccc21 | 93.1
16 | COc1cccc(-c2cc(=O)c3ccccc3o2)c1N | 85.7

Target: MAPKAPK5 (human) (UniProt Q8IW41)
Assay: as above
Settings: compound 0.5 µM; ATP 10 µM

Row | Structure (SMILES) | residual activity [%]
17 | COc1cc2c(cc1OC)-c1[nH]nc(Nc3cccc(F)c3)c1C2 | 82.3
18 | O=c1c(-c2ccc(F)cc2)c(-c2ccncc2)[nH]n1-c1ccc(Cl)cc1 | 99.7
19 | Cn1cc(/C=C2\C(=O)Nc3ccc(S(N)(=O)=O)cc32)c2ccccc21 | 88.3
20 | COc1cccc(-c2cc(=O)c3ccccc3o2)c1N | 122

Target: MARK1 (human) (UniProt Q9P0L2)
Assay: as above
Settings: compound 0.5 µM; ATP 10 µM

Sequence of MARK1 (human) (Q9P0L2 whole entry, looked up): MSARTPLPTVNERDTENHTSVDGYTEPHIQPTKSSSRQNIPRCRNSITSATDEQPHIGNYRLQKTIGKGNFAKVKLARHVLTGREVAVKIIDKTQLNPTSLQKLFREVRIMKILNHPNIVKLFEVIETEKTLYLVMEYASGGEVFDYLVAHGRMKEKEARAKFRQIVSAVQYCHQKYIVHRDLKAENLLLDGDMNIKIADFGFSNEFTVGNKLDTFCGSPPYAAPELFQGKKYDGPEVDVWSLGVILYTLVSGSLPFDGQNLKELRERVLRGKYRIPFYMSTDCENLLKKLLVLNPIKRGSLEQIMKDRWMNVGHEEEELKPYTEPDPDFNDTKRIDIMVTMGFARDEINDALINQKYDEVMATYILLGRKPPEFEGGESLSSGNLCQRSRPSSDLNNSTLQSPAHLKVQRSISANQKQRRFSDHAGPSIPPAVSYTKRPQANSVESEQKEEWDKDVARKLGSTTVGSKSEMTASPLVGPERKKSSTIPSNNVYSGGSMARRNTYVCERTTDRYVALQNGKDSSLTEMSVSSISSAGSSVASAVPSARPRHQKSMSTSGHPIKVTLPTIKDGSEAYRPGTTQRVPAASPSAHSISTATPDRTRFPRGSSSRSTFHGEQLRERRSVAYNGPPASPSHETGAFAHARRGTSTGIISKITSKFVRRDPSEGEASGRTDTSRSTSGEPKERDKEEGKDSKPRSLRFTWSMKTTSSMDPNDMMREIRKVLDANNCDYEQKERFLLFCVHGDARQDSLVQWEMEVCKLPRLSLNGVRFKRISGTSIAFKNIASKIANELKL

Row | Structure (SMILES) | residual activity [%]
21 | COc1cc2c(cc1OC)-c1[nH]nc(Nc3cccc(F)c3)c1C2 | 96.1
22 | O=c1c(-c2ccc(F)cc2)c(-c2ccncc2)[nH]n1-c1ccc(Cl)cc1 | 94.5
23 | Cn1cc(/C=C2\C(=O)Nc3ccc(S(N)(=O)=O)cc32)c2ccccc21 | 40.4
24 | COc1cccc(-c2cc(=O)c3ccccc3o2)c1N | 96.9

Target: MYLK (human) (UniProt Q15746)
Assay: as above
Settings: compound 0.5 µM; ATP 10 µM

Row | Structure (SMILES) | residual activity [%]
25 | COc1cc2c(cc1OC)-c1[nH]nc(Nc3cccc(F)c3)c1C2 | 102
26 | O=c1c(-c2ccc(F)cc2)c(-c2ccncc2)[nH]n1-c1ccc(Cl)cc1 | 101
27 | Cn1cc(/C=C2\C(=O)Nc3ccc(S(N)(=O)=O)cc32)c2ccccc21 | 95
28 | COc1cccc(-c2cc(=O)c3ccccc3o2)c1N | 98.9

Target: NEK4 (human) (UniProt P51957)
Assay: as above
Settings: compound 0.5 µM; ATP 10 µM

Sequence of NEK4 (human) (P51957 whole entry, looked up): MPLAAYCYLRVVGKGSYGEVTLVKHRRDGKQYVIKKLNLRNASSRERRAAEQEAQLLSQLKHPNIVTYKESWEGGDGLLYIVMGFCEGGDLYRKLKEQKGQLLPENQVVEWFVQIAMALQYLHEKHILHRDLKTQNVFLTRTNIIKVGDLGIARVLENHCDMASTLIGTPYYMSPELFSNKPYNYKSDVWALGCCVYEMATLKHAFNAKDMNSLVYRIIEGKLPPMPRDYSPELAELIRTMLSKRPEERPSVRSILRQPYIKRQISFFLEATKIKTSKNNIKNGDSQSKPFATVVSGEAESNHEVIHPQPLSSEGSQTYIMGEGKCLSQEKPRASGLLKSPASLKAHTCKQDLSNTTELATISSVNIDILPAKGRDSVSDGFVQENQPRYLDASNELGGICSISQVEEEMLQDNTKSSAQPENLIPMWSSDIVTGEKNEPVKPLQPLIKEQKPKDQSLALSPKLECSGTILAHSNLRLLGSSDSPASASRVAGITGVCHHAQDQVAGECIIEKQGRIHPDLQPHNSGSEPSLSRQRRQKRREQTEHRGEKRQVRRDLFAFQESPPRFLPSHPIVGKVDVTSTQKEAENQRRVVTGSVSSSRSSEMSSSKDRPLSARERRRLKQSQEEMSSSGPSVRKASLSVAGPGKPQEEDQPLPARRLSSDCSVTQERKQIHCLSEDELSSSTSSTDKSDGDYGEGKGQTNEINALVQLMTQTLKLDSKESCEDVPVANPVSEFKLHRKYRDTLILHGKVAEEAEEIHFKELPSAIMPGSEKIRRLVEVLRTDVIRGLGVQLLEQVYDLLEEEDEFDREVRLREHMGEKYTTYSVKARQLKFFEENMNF

Row | Structure (SMILES) | residual activity [%]
29 | COc1cc2c(cc1OC)-c1[nH]nc(Nc3cccc(F)c3)c1C2 | 101
30 | O=c1c(-c2ccc(F)cc2)c(-c2ccncc2)[nH]n1-c1ccc(Cl)cc1 | 93.9
31 | Cn1cc(/C=C2\C(=O)Nc3ccc(S(N)(=O)=O)cc32)c2ccccc21 | 81
32 | COc1cccc(-c2cc(=O)c3ccccc3o2)c1N | 93.4

Target: NUAK1 (human) (UniProt O60285)
Assay: as above
Settings: compound 0.5 µM; ATP 10 µM

Row | Structure (SMILES) | residual activity [%]
33 | COc1cc2c(cc1OC)-c1[nH]nc(Nc3cccc(F)c3)c1C2 | 88.5
34 | O=c1c(-c2ccc(F)cc2)c(-c2ccncc2)[nH]n1-c1ccc(Cl)cc1 | 89.1
35 | Cn1cc(/C=C2\C(=O)Nc3ccc(S(N)(=O)=O)cc32)c2ccccc21 | 5.88
36 | COc1cccc(-c2cc(=O)c3ccccc3o2)c1N | 98.1

Target: OXSR1 (human) (UniProt O95747)
Assay: as above
Settings: compound 0.5 µM; ATP 10 µM

Sequence of OXSR1 (human) (O95747 whole entry, looked up): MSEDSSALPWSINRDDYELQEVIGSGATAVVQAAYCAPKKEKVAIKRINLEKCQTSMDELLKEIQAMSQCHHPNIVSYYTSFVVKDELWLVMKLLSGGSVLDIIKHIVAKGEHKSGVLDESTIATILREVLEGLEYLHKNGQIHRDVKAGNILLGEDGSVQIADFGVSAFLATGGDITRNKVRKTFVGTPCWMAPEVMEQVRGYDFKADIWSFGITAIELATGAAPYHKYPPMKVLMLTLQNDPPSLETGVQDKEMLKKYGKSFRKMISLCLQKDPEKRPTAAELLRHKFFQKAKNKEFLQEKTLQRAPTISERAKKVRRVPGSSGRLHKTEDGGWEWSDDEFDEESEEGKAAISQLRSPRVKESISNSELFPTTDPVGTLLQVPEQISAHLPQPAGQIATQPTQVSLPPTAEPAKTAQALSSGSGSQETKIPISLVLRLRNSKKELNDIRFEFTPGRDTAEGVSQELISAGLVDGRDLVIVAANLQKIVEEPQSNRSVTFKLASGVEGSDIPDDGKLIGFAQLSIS

Row | Structure (SMILES) | residual activity [%]
37 | COc1cc2c(cc1OC)-c1[nH]nc(Nc3cccc(F)c3)c1C2 | 121
38 | O=c1c(-c2ccc(F)cc2)c(-c2ccncc2)[nH]n1-c1ccc(Cl)cc1 | 83.3
39 | Cn1cc(/C=C2\C(=O)Nc3ccc(S(N)(=O)=O)cc32)c2ccccc21 | 93.7
40 | COc1cccc(-c2cc(=O)c3ccccc3o2)c1N | 91.2

Target: PIM1 (human) (UniProt P11309)
Assay: as above
Settings: compound 0.5 µM; ATP 10 µM

Row | Structure (SMILES) | residual activity [%]
41 | COc1cc2c(cc1OC)-c1[nH]nc(Nc3cccc(F)c3)c1C2 | 97.3
42 | O=c1c(-c2ccc(F)cc2)c(-c2ccncc2)[nH]n1-c1ccc(Cl)cc1 | 101
43 | Cn1cc(/C=C2\C(=O)Nc3ccc(S(N)(=O)=O)cc32)c2ccccc21 | 96.5
44 | COc1cccc(-c2cc(=O)c3ccccc3o2)c1N | 93.9

Target: PNCK (human) (UniProt Q6P2M8)
Assay: as above
Settings: compound 0.5 µM; ATP 10 µM

Sequence of PNCK (human) (Q6P2M8 whole entry, looked up): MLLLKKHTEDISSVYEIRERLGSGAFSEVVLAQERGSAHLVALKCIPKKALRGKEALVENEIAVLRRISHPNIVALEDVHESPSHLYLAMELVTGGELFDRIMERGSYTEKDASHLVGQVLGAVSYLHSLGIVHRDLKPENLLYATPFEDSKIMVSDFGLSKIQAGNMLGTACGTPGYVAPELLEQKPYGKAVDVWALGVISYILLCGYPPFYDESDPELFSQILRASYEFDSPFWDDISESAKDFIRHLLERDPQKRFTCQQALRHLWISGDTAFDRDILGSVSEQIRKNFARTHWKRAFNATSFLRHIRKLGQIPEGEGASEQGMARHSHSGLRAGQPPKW

Row | Structure (SMILES) | residual activity [%]
45 | COc1cc2c(cc1OC)-c1[nH]nc(Nc3cccc(F)c3)c1C2 | 98
46 | O=c1c(-c2ccc(F)cc2)c(-c2ccncc2)[nH]n1-c1ccc(Cl)cc1 | 92
47 | Cn1cc(/C=C2\C(=O)Nc3ccc(S(N)(=O)=O)cc32)c2ccccc21 | 58.1
48 | COc1cccc(-c2cc(=O)c3ccccc3o2)c1N | 96.8

Target: PRKCH (human) (UniProt P24723)
Assay: as above
Settings: compound 0.5 µM; ATP 10 µM

Row | Structure (SMILES) | residual activity [%]
49 | COc1cc2c(cc1OC)-c1[nH]nc(Nc3cccc(F)c3)c1C2 | 92.1
50 | O=c1c(-c2ccc(F)cc2)c(-c2ccncc2)[nH]n1-c1ccc(Cl)cc1 | 89
51 | Cn1cc(/C=C2\C(=O)Nc3ccc(S(N)(=O)=O)cc32)c2ccccc21 | 102
52 | COc1cccc(-c2cc(=O)c3ccccc3o2)c1N | 87

Target: ROCK1 (human) (UniProt Q13464)
Assay: as above
Settings: compound 0.5 µM; ATP 10 µM

Row | Structure (SMILES) | residual activity [%]
53 | COc1cc2c(cc1OC)-c1[nH]nc(Nc3cccc(F)c3)c1C2 | 87.5
54 | O=c1c(-c2ccc(F)cc2)c(-c2ccncc2)[nH]n1-c1ccc(Cl)cc1 | 109
55 | Cn1cc(/C=C2\C(=O)Nc3ccc(S(N)(=O)=O)cc32)c2ccccc21 | 63.8
56 | COc1cccc(-c2cc(=O)c3ccccc3o2)c1N | 95.6

Target: RPS6KB2 (human) (UniProt Q9UBS0)
Assay: as above
Settings: compound 0.5 µM; ATP 10 µM

Row | Structure (SMILES) | residual activity [%]
57 | COc1cc2c(cc1OC)-c1[nH]nc(Nc3cccc(F)c3)c1C2 | 100
58 | O=c1c(-c2ccc(F)cc2)c(-c2ccncc2)[nH]n1-c1ccc(Cl)cc1 | 95.5
59 | Cn1cc(/C=C2\C(=O)Nc3ccc(S(N)(=O)=O)cc32)c2ccccc21 | 94.6
60 | COc1cccc(-c2cc(=O)c3ccccc3o2)c1N | 84.5

Target: STK4 (human) (UniProt Q13043)
Assay: as above
Settings: compound 0.5 µM; ATP 10 µM

Row | Structure (SMILES) | residual activity [%]
61 | COc1cc2c(cc1OC)-c1[nH]nc(Nc3cccc(F)c3)c1C2 | 91.5
62 | O=c1c(-c2ccc(F)cc2)c(-c2ccncc2)[nH]n1-c1ccc(Cl)cc1 | 90
63 | Cn1cc(/C=C2\C(=O)Nc3ccc(S(N)(=O)=O)cc32)c2ccccc21 | 10.7
64 | COc1cccc(-c2cc(=O)c3ccccc3o2)c1N | 92.1

Target: TAOK2 (human) (UniProt Q9UL54)
Assay: as above
Settings: compound 0.5 µM; ATP 10 µM

Row | Structure (SMILES) | residual activity [%]
65 | COc1cc2c(cc1OC)-c1[nH]nc(Nc3cccc(F)c3)c1C2 | 97.1
66 | O=c1c(-c2ccc(F)cc2)c(-c2ccncc2)[nH]n1-c1ccc(Cl)cc1 | 101
67 | Cn1cc(/C=C2\C(=O)Nc3ccc(S(N)(=O)=O)cc32)c2ccccc21 | 86.4
68 | COc1cccc(-c2cc(=O)c3ccccc3o2)c1N | 96

Target: TBK1 (human) (UniProt Q9UHD2)
Assay: as above
Settings: compound 0.5 µM; ATP 10 µM

Row | Structure (SMILES) | residual activity [%]
69 | COc1cc2c(cc1OC)-c1[nH]nc(Nc3cccc(F)c3)c1C2 | 101
70 | O=c1c(-c2ccc(F)cc2)c(-c2ccncc2)[nH]n1-c1ccc(Cl)cc1 | 112
71 | Cn1cc(/C=C2\C(=O)Nc3ccc(S(N)(=O)=O)cc32)c2ccccc21 | 21.6
72 | COc1cccc(-c2cc(=O)c3ccccc3o2)c1N | 94.3

Target: TEK (human) (UniProt Q02763)
Assay: as above
Settings: compound 0.5 µM; ATP 10 µM

Sequence of TEK (human) (Q02763 whole entry, looked up): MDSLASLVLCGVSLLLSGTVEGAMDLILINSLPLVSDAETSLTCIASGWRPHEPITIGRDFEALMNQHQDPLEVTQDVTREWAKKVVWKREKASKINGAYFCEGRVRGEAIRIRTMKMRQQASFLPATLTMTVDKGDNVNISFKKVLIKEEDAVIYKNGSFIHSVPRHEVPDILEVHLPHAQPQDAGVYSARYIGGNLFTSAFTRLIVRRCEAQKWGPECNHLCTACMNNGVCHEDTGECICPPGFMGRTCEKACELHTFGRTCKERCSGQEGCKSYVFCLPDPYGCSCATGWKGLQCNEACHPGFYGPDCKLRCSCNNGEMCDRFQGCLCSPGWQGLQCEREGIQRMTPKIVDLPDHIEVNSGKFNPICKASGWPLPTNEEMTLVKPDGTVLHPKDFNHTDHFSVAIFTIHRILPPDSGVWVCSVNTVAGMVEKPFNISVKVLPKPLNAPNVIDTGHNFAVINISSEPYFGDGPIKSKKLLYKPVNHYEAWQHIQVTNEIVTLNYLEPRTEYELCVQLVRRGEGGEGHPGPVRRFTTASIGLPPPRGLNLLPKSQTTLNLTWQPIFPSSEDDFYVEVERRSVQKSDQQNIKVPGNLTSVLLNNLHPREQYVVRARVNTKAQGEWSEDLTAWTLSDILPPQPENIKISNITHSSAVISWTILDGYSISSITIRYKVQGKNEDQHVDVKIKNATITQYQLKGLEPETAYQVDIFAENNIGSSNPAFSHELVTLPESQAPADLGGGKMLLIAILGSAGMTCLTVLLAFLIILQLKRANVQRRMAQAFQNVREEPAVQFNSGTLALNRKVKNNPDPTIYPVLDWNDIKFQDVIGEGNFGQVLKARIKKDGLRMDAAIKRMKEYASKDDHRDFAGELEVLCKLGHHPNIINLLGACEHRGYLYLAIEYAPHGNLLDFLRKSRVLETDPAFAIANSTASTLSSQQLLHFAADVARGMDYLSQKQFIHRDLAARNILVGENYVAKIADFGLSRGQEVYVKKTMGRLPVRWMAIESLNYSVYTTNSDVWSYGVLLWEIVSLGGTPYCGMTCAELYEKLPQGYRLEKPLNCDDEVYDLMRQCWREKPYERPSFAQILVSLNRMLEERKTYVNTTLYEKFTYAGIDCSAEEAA

Row | Structure (SMILES) | residual activity [%]
73 | COc1cc2c(cc1OC)-c1[nH]nc(Nc3cccc(F)c3)c1C2 | 92.5
74 | O=c1c(-c2ccc(F)cc2)c(-c2ccncc2)[nH]n1-c1ccc(Cl)cc1 | 94.4
75 | Cn1cc(/C=C2\C(=O)Nc3ccc(S(N)(=O)=O)cc32)c2ccccc21 | 95.8
76 | COc1cccc(-c2cc(=O)c3ccccc3o2)c1N | 93.1

Target: TGFBR1 (human) (UniProt P36897)
Assay: as above
Settings: compound 0.5 µM; ATP 10 µM

Sequence of TGFBR1 (human) (P36897 whole entry, looked up): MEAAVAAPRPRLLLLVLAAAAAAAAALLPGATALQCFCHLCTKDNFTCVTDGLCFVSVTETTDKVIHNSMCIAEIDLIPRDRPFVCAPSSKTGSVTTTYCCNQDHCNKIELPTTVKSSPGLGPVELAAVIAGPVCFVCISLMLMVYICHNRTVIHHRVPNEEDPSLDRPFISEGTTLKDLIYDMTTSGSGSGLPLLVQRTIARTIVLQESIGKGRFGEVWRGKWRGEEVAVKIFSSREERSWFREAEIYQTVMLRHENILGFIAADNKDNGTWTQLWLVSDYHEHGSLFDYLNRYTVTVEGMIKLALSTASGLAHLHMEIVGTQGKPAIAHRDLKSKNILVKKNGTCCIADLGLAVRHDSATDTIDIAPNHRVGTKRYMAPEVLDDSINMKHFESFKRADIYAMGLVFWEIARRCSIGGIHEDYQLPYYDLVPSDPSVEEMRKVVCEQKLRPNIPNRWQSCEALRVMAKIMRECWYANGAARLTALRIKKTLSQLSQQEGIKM

Row | Structure (SMILES) | residual activity [%]
77 | COc1cc2c(cc1OC)-c1[nH]nc(Nc3cccc(F)c3)c1C2 | 101
78 | O=c1c(-c2ccc(F)cc2)c(-c2ccncc2)[nH]n1-c1ccc(Cl)cc1 | 101
79 | Cn1cc(/C=C2\C(=O)Nc3ccc(S(N)(=O)=O)cc32)c2ccccc21 | 97.8
80 | COc1cccc(-c2cc(=O)c3ccccc3o2)c1N | 94.7

Target: VRK1 (human) (UniProt Q99986)
Assay: as above
Settings: compound 0.5 µM; ATP 10 µM

Sequence of VRK1 (human) (Q99986 whole entry, looked up): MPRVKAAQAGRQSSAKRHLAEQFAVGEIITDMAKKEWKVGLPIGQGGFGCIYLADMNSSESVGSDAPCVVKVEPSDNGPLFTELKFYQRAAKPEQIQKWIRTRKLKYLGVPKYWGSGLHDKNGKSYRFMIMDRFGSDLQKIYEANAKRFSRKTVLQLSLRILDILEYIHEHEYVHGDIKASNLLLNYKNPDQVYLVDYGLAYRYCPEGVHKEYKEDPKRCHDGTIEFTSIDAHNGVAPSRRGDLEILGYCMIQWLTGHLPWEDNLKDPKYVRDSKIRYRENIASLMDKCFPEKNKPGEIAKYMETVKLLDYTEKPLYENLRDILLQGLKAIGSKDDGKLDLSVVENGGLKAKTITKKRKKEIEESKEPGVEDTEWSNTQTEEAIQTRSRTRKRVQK

Row | Structure (SMILES) | residual activity [%]
81 | COc1cc2c(cc1OC)-c1[nH]nc(Nc3cccc(F)c3)c1C2 | 89.9
82 | O=c1c(-c2ccc(F)cc2)c(-c2ccncc2)[nH]n1-c1ccc(Cl)cc1 | 92.9
83 | Cn1cc(/C=C2\C(=O)Nc3ccc(S(N)(=O)=O)cc32)c2ccccc21 | 103
84 | COc1cccc(-c2cc(=O)c3ccccc3o2)c1N | 89.4
